Results on eleven compounds are retold here after patent CN117800914A, “一种抗SARS-CoV-2病毒奥密克戎突变种抑制剂” (Second Military Medical University SMMU, priority 2023, dated 2024).

Structures are written as SMILES.

One assay concerns SARS-CoV-2 Omicron mutant BA.2 (SARS-CoV-2奥密克戎毒突变种BA.2). The format is cell-based, SARS-CoV-2 Omicron BA.2. The conditions noted are these: 20 h.
Consider `CO[C@H]1/C=C/C=C/C=C/C[C@H](OC(=O)[C@@H](C)NC(=O)CCC(C)C)[C@H](C)[C@@H](O)/C(CO)=C\CCc2cc(F)cc(c2)NC(=O)C1` [A6], for which inhibition was half-maximal at 0.45 µM (IC50).

`CO[C@H]1/C=C/C=C/C=C/C[C@H](OC(=O)[C@@H](C)NC(=O)CC(C)C)[C@H](C)[C@@H](O)/C(C)=C\CCc2ccc(F)c(c2)NC(=O)C1` [B1]: inhibition was half-maximal at 0.3 µM (IC50). Compared with the last compound, the IC50 is about 1.5-fold lower.

For the compound `CO[C@H]1/C=C/C=C/C=C/C[C@H](O)[C@H](C)[C@@H](OC(=O)[C@@H](C)NC(=O)CC(C)C)/C(C)=C\CCc2ccc(F)c(c2)NC(=O)C1` [B3], half-maximal inhibition (IC50) was put at 1.19 µM.

For `CCC(C)C(=O)N[C@H](C)C(=O)O[C@H]1C/C=C/C=C/C=C/[C@H](OC)CC(=O)Nc2cc(ccc2F)CC/C=C(/C)[C@H](O)[C@H]1C` (some centres unmarked) [B5], the midpoint of inhibition, the IC50, lay at 0.2 µM.

As to `C/C=C(\C)C(=O)N[C@H](C)C(=O)O[C@H]1C/C=C/C=C/C=C/[C@H](OC)CC(=O)Nc2cc(ccc2F)CC/C=C(/C)[C@H](O)[C@H]1C` [B6], it took 0.413 µM to reach half-maximal inhibition (IC50).

As to `CO[C@H]1/C=C/C=C/C=C/C[C@H](OC(=O)[C@@H](C)NC(=O)CCC(C)C)[C@H](C)[C@@H](O)/C(C)=C\CCc2ccc(F)c(c2)NC(=O)C1` [B8], the concentration for half-maximal inhibition (IC50) (usually the point on the concentration scale where inhibition reaches its midpoint) came to 1.1 µM.

With `COc1cc2cc(c1)NC(=O)C[C@@H](OC)/C=C/C=C/C=C/C[C@H](O)[C@H](C)[C@@H](OC(=O)[C@@H](C)NC(=O)CC(C)C)/C(C)=C\CC2` [C7], 0.825 µM corresponded to half-maximal inhibition (IC50).

Consider `COc1cc2c(O)c(c1)NC(=O)C[C@@H](OC)/C=C/C=C/C=C/C[C@H](O)[C@H](C)[C@@H](OC(=O)[C@@H](C)NC(=O)CC(C)C)/C(C)=C\CC2` [C8], for which the IC50 amounted to 0.4 µM.

On to `CO[C@H]1/C=C/C=C/C=C/C[C@H](OC(=O)[C@@H](C)NC(=O)CC(C)C)[C@H](C)[C@@H](O)/C(C)=C\CCc2cccc(c2)NC(=O)C1` [D1], for which the IC50 was over 5 µM.

A further assay relates to SARS-CoV-2 mutant strains (SARS-CoV-2突变株). The conditions noted are these: treatment of SARS-CoV-2 mutant strains; cited from earlier work.
As to `NC(=O)c1nc(F)c[nH]c1=O` [法维拉韦], the “clinical performance in treating SARS-CoV-2 mutant strains (in words)” value is given as “不尽如人意”.

Turning to `CCC(CC)COC(=O)[C@H](C)N[P@](=O)(OC[C@H]1O[C@@](C#N)(c2ccc3c(N)ncnn23)[C@H](O)[C@@H]1O)Oc1ccccc1` [瑞德西韦], the “clinical performance in treating SARS-CoV-2 mutant strains (in words)” value is recorded as “不尽如人意”.
